The values that follow are results of earlier work, collected in US20090130675A1, “Genes Involved in the Biosynthesis of Thiocoraline and Heterologous Production of Same” (PHARMA MAR, S.A., priority 2005, published 2009).

For series [1], the system named is human carcinoma xenografts. To be noted: in vivo, human carcinoma xenografts (Faircloth et al. 1997).
In series [2] the test system is cell lines of different types of solid tumors, such as melanoma, breast, non-microcytic lung and colon cancer. The note with it: in vitro.
Series [3] deals with Gram-positive bacteria. To be noted: against Gram-positive bacteria.

Thiocoraline: the antitumor activity result in series [1] was “marked antitumor activity”. Also, in series [2], the “capacity to inhibit the growth of cell lines” value was “inhibit the growth of cell lines”. For the same substance, in series [3], the antibacterial activity result was “shows antibacterial activity”.
